From patent US8993527B2, “Methods, compositions, and formulations for preventing or reducing adverse effects in a patient” (Pericor Therapeutics, Inc., priority 2005, dated 2015) come the findings set out here.

Structures can show the parent of a compound that is named as a salt.

For experiment [1], the target named is T1, NBTI-specific adenosine transport site (UniProt O54698).
T1 sequence (O54698 1-457): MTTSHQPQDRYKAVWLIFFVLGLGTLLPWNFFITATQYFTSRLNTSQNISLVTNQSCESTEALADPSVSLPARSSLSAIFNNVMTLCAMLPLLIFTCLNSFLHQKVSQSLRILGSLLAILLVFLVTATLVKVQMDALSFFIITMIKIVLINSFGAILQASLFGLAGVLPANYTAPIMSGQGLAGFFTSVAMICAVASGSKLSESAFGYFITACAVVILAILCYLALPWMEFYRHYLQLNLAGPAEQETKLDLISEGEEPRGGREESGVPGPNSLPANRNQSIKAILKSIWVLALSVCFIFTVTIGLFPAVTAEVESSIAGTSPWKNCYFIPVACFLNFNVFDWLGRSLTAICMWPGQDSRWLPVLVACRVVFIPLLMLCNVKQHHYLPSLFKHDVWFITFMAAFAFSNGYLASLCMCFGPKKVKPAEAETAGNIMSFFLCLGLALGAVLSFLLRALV
The experiment is described as follows: [3H]-NBTI binding assay. The note with it: read-out: ED50 (50% displacement of bound [3H]-NBTI); 0.5 mg neuronal membrane protein, 0.5 nM [3H]-NBTI, 30 minutes. How it is done:
Increasing concentrations of the test compounds were incubated for 30 minutes with 0.5 mg neuronal membrane protein together with 0.5 nM [^3 H]-NBTI in a Tris buffer (pH 7.4) at room temperature. The assays were quenched and membranes collected by rapid filtration. Filters were then solubilized and radioactivity determined by scintillation counting.

The test system of experiment [2] is longitudinal muscle from the guinea pig ileum. The experiment is described as follows: Inhibition of stimulated contraction in isolated ileum. The note with it: electrically stimulated guinea pig ileum muscle. From the text:
These are detailed in Table II.

For experiment [3], the system named is coronary endothelial cells. The experiment is described as follows: Inhibition of adenosine utilization in cell culture. The format is cell-based. As to conditions: 1 μM [3H] adenosine, 15 minutes; for inhibition at 5 µM / inhibition at 50 µM: Endothelial cell. How it is done:
In this assay, endothelial cells were incubated with 5 μM or 50 μM of the test compound together with 1 μM [^3H] adenosine for 15 minutes. Inhibition of adenosine utilization was determined by measuring the concentration of extracellular adenosine by scintillation counting following separation by thin layer chromatography (TLC).

Consider “5-Amino-4-[1-[4-(4-nitrophenyl)]piperazinocarbamoyl]-1-1-β-D-ribofurano sylimidazole [Compound No. 60 (1-508)]”, for which, in experiment [1], the EC50 was 17 µM. For the molecule `CN(C)c1ccc(CNC(=O)c2ncn([C@@H]3O[C@H](CO)[C@@H](O)[C@H]3O)c2N)cc1` [41 (1-396), 5-Amino-1-β-D-ribofuranosylimidazole-4-N(4-dimethylaminobenzyl)-carboxamide hydrochloride], the half-maximal inhibitory concentration (IC50) in experiment [2] stood at 100 µM. In experiment [2], `Nc1c(C(=O)NC[C@H](O)c2ccc(O)c(O)c2)ncn1[C@@H]1O[C@H](CO)[C@@H](O)[C@H]1O` [42 (1-431), (R)-5-Amino-1-β-D-ribofuranosylimidazole-4-N-[2-hydroxy-2-(3,4-dihydroxyphenyl)ethyl]carboxamide] showed an IC50 of 6 µM. On to `Nc1c(C(=O)NCc2ccc([N+](=O)[O-])cc2)ncn1C1OC(CI)C(O)C1O` [46 (1-445), 5-Amino-1-(5-iodo-5-deoxy-β-D-ribofuranosyl)imidazole-4-N-[(4-nitrophenyl)methyl]carboxamide], for which, in experiment [3] (5 μM), 5 µM produced 19 ± 4% inhibition. Also, 50 µM produced 30 ± 9% inhibition in experiment [3] (50 μM). Moreover, the EC50 in experiment [1] was 8 µM. For `CC(NC(=O)c1ncn(C2OC(CO)C(O)C2O)c1N)c1ccc([N+](=O)[O-])cc1` [49 (1-453), (R)-5-Amino-1-β-D-ribofuranosylimidazole 4-N-[1-4-nitrophenyl)ethyl]carboxamide], the inhibition at 5 µM in experiment [3] (5 μM) worked out at 30 ± 4%. The inhibition at 50 µM in experiment [3] (50 μM) stood at 33 ± 8%. Also, the EC50 in experiment [1] turned out to be 7 µM. Take `CC(NC(=O)c1ncn(C2OC(CO)C(O)C2O)c1N)c1ccc([N+](=O)[O-])cc1` [50 (1-459), (S)-5-Amino-1-β-D-ribofuranosylimidazole-4-N-[(4-nitrophenyl)ethyl]carboxamide]: in experiment [1], the EC50 came to 28 µM. In experiment [2], `Nc1c(C(=O)NCc2cccc(Cl)c2)ncn1[C@H]1O[C@H](CO)[C@@H](O)[C@H]1O` [Compound No. 24 (1-354), 5-Amino-1-α-D-ribofuranosylimidazole-4-N-[(3-chlorophenyl)methyl]carboxamide] showed an IC50 of 400 µM. Molecule `NC(=O)c1ncn([C@@H]2O[C@H](CCl)[C@@H](O)[C@H]2O)c1N` [Compound No. 26 (1-332), 5-amino-1-(5-chloro-5-deoxy-β-D-ribofuranosyl)imidazole-4-carboxamide] gave a half-maximal inhibitory concentration (IC50) in experiment [2] (Cavia porcellus) of 200 µM. Take `Nc1c(C(=O)NCc2cccc(Cl)c2)ncn1C1OC(CO)C(O)C1O` [Compound No. 35 (1-355), 5-amino-1-β-D-ribofuranosyl-imidazole-4-N[(3-chlorophenyl)methyl]carboxamide]: in experiment [2] (Cavia porcellus), the IC50 came to 60 µM. As for `Nc1c(C(=O)N2CCc3ccccc32)ncn1C1OC(CO)C(O)C1O` [Compound No. 48 (1-452), 5-Amino-1-β-D-ribofuranosyl-imidazole-4-N-indolinylcarboxamide], in experiment [3] (5 μM), the inhibition at 5 µM is 23 ± 3%. In experiment [3] (50 μM), this molecule showed an inhibition at 50 µM of 25 ± 2%. Moreover, the EC50 in experiment [1] stood at 22 µM. Turning to `CSC[C@H]1O[C@@H](n2cnc(C(N)=O)c2N)[C@H](O)[C@@H]1O` [Compound No. 54 (1-483), 5-Amino-1-(5-deoxy-5-methylthio-β-D-ribofuranosyl)imidazole-4-carboxamide], the EC50 in experiment [1] came out at 28 µM. With `Nc1c(C(=O)Nc2ccc([N+](=O)[O-])cc2)ncn1C1OC(CO)C(O)C1O` [Compound No. 58 (1-489), 5-Amino-1-β-D-ribofuranosylimidazole-4-N-(4-nitrophenyl)carboxamide], the EC50 in experiment [1] is 80 µM. Turning to `Nc1c(C(=O)NCCCc2ccc([N+](=O)[O-])cc2)ncn1[C@@H]1O[C@H](CO)[C@@H](O)[C@H]1O` [Compound No. 73 (1-566)], the “Inhibition of Adenosine Utilization (%)” value in experiment [3] (5 μM) is on record as 16 ± 0%; in experiment [3] (50 μM) it was 33 ± 9%. As for `Nc1c(C(=O)NCc2ccc(S(N)(=O)=O)cc2)ncn1[C@@H]1O[C@H](CO)[C@@H](O)[C@H]1O` [Compound No. 75 (1-577), 5-Amino-1-β-D-ribofuranosylimidazole-4-N-[(4-sulfamoylphenyl)methyl]carboxamide], the “Inhibition of Adenosine Utilization (%)” value in experiment [3] (5 μM) worked out at 8 ± 0%; in experiment [3] (50 μM) it was 30 ± 3%.

The IC50 is the concentration needed to halve the response being measured. Low values mean greater potency, high ones weaker potency. What is called inhibition is the relative decrease from the control value, in per cent. High values mean strong suppression, low ones little suppression.
